Test results from PubChem BioAssay (NCI).
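Results reflect a 48-hour exposure of cells in 96-well plates to compound at five concentrations. GI50: concentration for 50% inhibition of growth. Definition used: TGI = concentration required for complete inhibition of growth.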

Experiments:
Test in all cases: NCI tumour cell line growth inhibition, 48 h
786-0 renal = test system: 786-0 renal
A498 renal = test system: A498 renal
A549 NSCLC = test system: A549 NSCLC
ACHN renal = test system: ACHN renal
BT-549 breast = test system: BT-549 breast
CAKI-1 renal = test system: CAKI-1 renal
CCRF-CEM leukemia = test system: CCRF-CEM leukemia
COLO 205 colon = test system: COLO 205 colon
DU-145 prostate = test system: DU-145 prostate
EKVX NSCLC = test system: EKVX NSCLC
HCC-2998 colon = test system: HCC-2998 colon
HCT-116 colon = test system: HCT-116 colon
HCT-15 colon = test system: HCT-15 colon
HL-60(TB) leukemia = test system: HL-60(TB) leukemia
HOP-62 NSCLC = test system: HOP-62 NSCLC
HOP-92 NSCLC = test system: HOP-92 NSCLC
HS 578T breast = test system: HS 578T breast
HT29 colon = test system: HT29 colon
IGROV1 ovarian = test system: IGROV1 ovarian
K-562 leukemia = test system: K-562 leukemia
KM12 colon = test system: KM12 colon
LOX IMVI melanoma = test system: LOX IMVI melanoma
M14 melanoma = test system: M14 melanoma
MALME-3M melanoma = test system: MALME-3M melanoma
MDA-MB-231 breast = test system: MDA-MB-231 breast
MDA-MB-435 = test system: MDA-MB-435
NCI-H226 lung = test system: NCI-H226 lung

For COc1ccc(N2CCN(C3=C(Cl)C(=O)c4ncccc4C3=O)CC2)cc1, the GI50 (786-0 renal) was 15.9 µM, the TGI (786-0 renal) was 29.5 µM and the GI50 (A498 renal) was 15 µM. For the same molecule, the TGI (A498 renal) was 29.1 µM, the GI50 (A549 NSCLC) was 15.9 µM and the TGI (A549 NSCLC) was 35.2 µM. For the same molecule, the GI50 (ACHN renal) was 1.78 µM, the TGI (ACHN renal) was 3.37 µM and the GI50 (BT-549 breast) was 4.23 µM. It also gave a TGI (BT-549 breast) of 14.1 µM, a GI50 (CAKI-1 renal) of 4.72 µM and a TGI (CAKI-1 renal) of 17.1 µM. The GI50 (CCRF-CEM leukemia) was 2.8 µM, the TGI (CCRF-CEM leukemia) was over 100 µM and the GI50 (COLO 205 colon) was 2.01 µM. The TGI (COLO 205 colon) was 4.04 µM, the GI50 (DU-145 prostate) was 5.93 µM and the TGI (DU-145 prostate) was 18.4 µM. For the same molecule, the GI50 (EKVX NSCLC) was 2.45 µM, the TGI (EKVX NSCLC) was 7.05 µM and the GI50 (HCC-2998 colon) was 11.7 µM. For the same molecule, the TGI (HCC-2998 colon) was 26.5 µM, the GI50 (HCT-116 colon) was 1.92 µM and the TGI (HCT-116 colon) was 3.85 µM. For the same molecule, the GI50 (HCT-15 colon) was 2.66 µM, the TGI (HCT-15 colon) was 11.3 µM and the GI50 (HL-60(TB) leukemia) was 1.48 µM. The TGI (HL-60(TB) leukemia) was 4.46 µM, the GI50 (HOP-62 NSCLC) was 19.1 µM and the TGI (HOP-62 NSCLC) was 38 µM. For the same molecule, the GI50 (HOP-92 NSCLC) was 1.49 µM, the TGI (HOP-92 NSCLC) was 3.03 µM and the GI50 (HS 578T breast) was 14.1 µM. The TGI (HS 578T breast) was 39 µM, the GI50 (HT29 colon) was 4.71 µM and the TGI (HT29 colon) was 18.2 µM. The GI50 (IGROV1 ovarian) was 3.25 µM, the TGI (IGROV1 ovarian) was 11.6 µM and the GI50 (K-562 leukemia) was 3.03 µM. The TGI (K-562 leukemia) was 12 µM, the GI50 (KM12 colon) was 18.4 µM and the TGI (KM12 colon) was 34.7 µM. It also gave a GI50 (LOX IMVI melanoma) of 1.75 µM, a TGI (LOX IMVI melanoma) of 3.56 µM and a GI50 (M14 melanoma) of 3.04 µM. It also gave a TGI (M14 melanoma) of 10.5 µM, a GI50 (MALME-3M melanoma) of 2.06 µM and a TGI (MALME-3M melanoma) of 6.05 µM. The GI50 (MDA-MB-231 breast) was 1.66 µM, the TGI (MDA-MB-231 breast) was 3.26 µM and the GI50 (MDA-MB-435) was 1.94 µM. The TGI (MDA-MB-435) was 3.68 µM and the GI50 (NCI-H226 lung) was 16.2 µM.
